Assay results: US7282507B2, “Indole derivatives as selective androgen receptor modulators (SARMS)” (Janssen Pharmaceutica N.V., priority 2004, dated 2007)

tested on: testosterone-enhanced ventral prostate and seminal vesicle weights; experiment: Ventral Prostate and Seminal Vesicle Weight in vivo Assay; set-up: species or system rat; conditions: immature castrated male Sprague Dawley rats, once daily for five days, usually orally 40 mg/kg, with testosterone propionate 2 mg/kg s.c. Further: key: 'active' if the non weight adjusted prostate weight was ≦40 mg or the % Inhibition prostate weight, body weight adjusted was ≧40% @ 2 mg/day dosage; ID50's, if determined, of ≦15 mg/day also indicated an 'active' compound; listed herein as 'inactive' as they did not meet the specified criteria defined above.
Experimental: Immature (approximately 50 g) castrated male Sprague Dawley rats (Charles River) were treated once daily for five days with test compound (usually given orally at 40 mg/kg in a volume of 0.3 mL, in 30% cyclodextrin or 0.5% methylcellulose vehicle) and with testosterone propionate (given subcutaneously by injection at the nape of the neck at 2 mg/kg, in a volume of 0.1 mL in sesame oil). On the sixth day, the rats were euthanized by asphyxiation in carbon dioxide. Ventral prosatates and seminal vesicles were removed and their wet weights determined.
A test compound was said to be “active” if the non weight adjusted prostate weight was ≦40 mg or the % Inhibition prostate weight, body weight adjusted was ≧40% @ 2 mg/day dosage.

SMILES	active / inactive: inhibition of testosterone-enhanced prostate weight
CCSCC(C)(O)c1[nH]c2cc(C(F)(F)F)c([N+](=O)[O-])cc2c1I (single isomer, unassigned) [Compound 241]	inactive
CC(C)(O)c1[nH]c2cc(C(F)(F)F)c(C#N)cc2c1I [Compound 278]	active
CCSCC(C)(O)c1cc2cc(Cl)c(C(F)(F)F)cc2n1S(C)(=O)=O (racemic) [Compound 146]	inactive
CC(O)(c1cc2cc(C#N)c(C(F)(F)F)cc2[nH]1)C(F)(F)F (stereo not shown) [Compound 334, 2-(2,2,2-Trifluoro-1-hydroxy-1-methyl-ethyl)-6-trifluoromethyl-1H-indole-5-carbonitrile]	active
CC(O)(c1[nH]c2cc(C(F)(F)F)c(C#N)cc2c1C#C[Si](C)(C)C)C(F)(F)F (single isomer, unassigned) [Compound 347]	active
CCSCC(C)(O)c1cc2cc(C#N)c(C)c(I)c2[nH]1 (racemic) [Compound 415]	inactive
CCSCC(C)(O)c1cc2cc(C#N)c(C(F)(F)F)cc2n1COC (racemic) [Compound 322]	inactive
CC(O)(COc1cccc([N+](=O)[O-])c1)c1cc2cc(C#N)c(C(F)(F)F)cc2[nH]1 (stereo not shown) [Compound 428, 2-[1-Hydroxy-1-methyl-2-(3-nitro-phenoxy)-ethyl]-6-trifluoromethyl-1H -indole-5-carbonitrile]	inactive
CC(C)(O)c1cc2cc([N+](=O)[O-])c(C(F)(F)F)cc2[nH]1 [Compound 274]	inactive
N#Cc1cc2cc(C(O)(C(F)(F)F)C(F)(F)F)[nH]c2cc1C(F)(F)F [Compound 357]	active
CCSCC(O)c1[nH]c2cc(C(F)(F)F)c(C#N)cc2c1Br (racemic) [Compound 413]	inactive
CC(C)(O)c1[nH]c2cc(C(F)(F)F)c(Cl)cc2c1Br [Compound 280]	inactive
CCSCC(O)c1cc2cc(C#N)c(C(F)(F)F)cc2[nH]1 (racemic) [Compound 410]	inactive
CCS(=O)(=O)CC(C)(O)c1cc2cc(Cl)c(C(F)(F)F)cc2[nH]1 (racemic) [Compound 404]	active
CSCn1c(C(C)(O)C(F)(F)F)cc2cc(C#N)c(C(F)(F)F)cc21 (racemic) [Compound 333]	active
CCS(=O)(=O)CC(O)c1cc2cc(C#N)c(C(F)(F)F)cc2[nH]1 (racemic) [Compound 412]	inactive
CC(C)(O[Si](C)(C)C)c1cc2cc([N+](=O)[O-])c(C(F)(F)F)cc2n1S(C)(=O)=O [Compound 269]	inactive
Cc1c(C(C)(C)O)[nH]c2cc(C(F)(F)F)c(C#N)cc12 [Compound 289]	active

SMILES	active / inactive: inhibition of testosterone-enhanced prostate weight
CC(C)(O)c1[nH]c2cc(C(F)(F)F)c([N+](=O)[O-])cc2c1I [Compound 276]	active
CC(O)(c1cc2cc(C#N)c(C(F)(F)F)cc2[nH]1)C(F)(F)F (stereo not shown) [Compound 329, 2-(2,2,2-Trifluoro-1-hydroxy-1-methyl-ethyl)-6-trifluoromethyl-1H-indole-5-carbonitrile]	active
CC(C)(O)c1cc2cc(Br)ccc2[nH]1 [Compound 294]	inactive
CCSCC(C)(O)c1[nH]c2cc(C(F)(F)F)c(C#N)cc2c1CC (racemic) [Compound 344]	active
CC(O)(CS(=O)(=O)c1ccc(F)cc1)c1cc2cc(Cl)c(C(F)(F)F)cc2[nH]1 (stereo not shown) [Compound 85]	inactive
CC(C)(O)c1[nH]c2cc(C(F)(F)F)c(C#N)cc2c1Cl [Compound 287]	inactive
CC(O)(C[S+]([O-])CC(F)(F)F)c1cc2cc([N+](=O)[O-])c(C(F)(F)F)cc2[nH]1 (mixture of isomers) [Compound 205]	active
CCSCC(C)(O)c1cc2cc(C#N)c(C(F)(F)F)cc2n1CC#N (racemic) [Compound 323]	inactive
CC(C)(O)c1[nH]c2cc(C(F)(F)F)c([N+](=O)[O-])cc2c1Cl [Compound 275]	active
C=Cc1c(C(C)(C)O)[nH]c2cc(C(F)(F)F)c([N+](=O)[O-])cc12 [Compound 281]	inactive
CCSCC(C)(O)c1cc2cc(C#N)ncc2[nH]1 (stereo not shown) [Compound 7]	inactive
CCSCC(C)(O)c1cc2nc(C#N)ccc2[nH]1 (racemic) [Compound 6]	inactive
CCSCC(C)(O)c1cc2cc(C#N)c(OC)cc2[nH]1 (racemic) [Compound 445]	inactive
CCSCC(C)(O)c1cc2cc([N+](=O)[O-])c(C(F)(F)F)cc2o1 (racemic) [Compound 9]	inactive
CCc1c(C(C)(O)CS(=O)(=O)CC)[nH]c2cc(C(F)(F)F)c(C#N)cc12 (single isomer, unassigned) [Compound 354]	active
CC(O)(c1cc2cc(C#N)c(C(F)(F)F)cc2[nH]1)C(F)(F)F (stereo not shown) [Compound 335, 2-(2,2,2-Trifluoro-1-hydroxy-1-methyl-ethyl)-6-trifluoromethyl-1H-indole-5-carbonitrile]	active
CCS(=O)(=O)CC(C)(O)c1cc2cc([N+](=O)[O-])c(C(F)(F)F)cc2n1C (single isomer, unassigned) [Compound 232]	active

molecular target: T1, androgen receptor (AdEasy+rAR, L929 cells) (Rattus norvegicus, UniProt P15207); experiment: L929 Androgen Receptor Functional Assay, Adenovirus Transduction; format: cell-based; conditions: agonist testing, 3000 nM
T1 construct: expressed in transfected cells; host or cells: L929 cells transduced with adenovirus AdEasy+rAR
T1 sequence (P15207 1-902): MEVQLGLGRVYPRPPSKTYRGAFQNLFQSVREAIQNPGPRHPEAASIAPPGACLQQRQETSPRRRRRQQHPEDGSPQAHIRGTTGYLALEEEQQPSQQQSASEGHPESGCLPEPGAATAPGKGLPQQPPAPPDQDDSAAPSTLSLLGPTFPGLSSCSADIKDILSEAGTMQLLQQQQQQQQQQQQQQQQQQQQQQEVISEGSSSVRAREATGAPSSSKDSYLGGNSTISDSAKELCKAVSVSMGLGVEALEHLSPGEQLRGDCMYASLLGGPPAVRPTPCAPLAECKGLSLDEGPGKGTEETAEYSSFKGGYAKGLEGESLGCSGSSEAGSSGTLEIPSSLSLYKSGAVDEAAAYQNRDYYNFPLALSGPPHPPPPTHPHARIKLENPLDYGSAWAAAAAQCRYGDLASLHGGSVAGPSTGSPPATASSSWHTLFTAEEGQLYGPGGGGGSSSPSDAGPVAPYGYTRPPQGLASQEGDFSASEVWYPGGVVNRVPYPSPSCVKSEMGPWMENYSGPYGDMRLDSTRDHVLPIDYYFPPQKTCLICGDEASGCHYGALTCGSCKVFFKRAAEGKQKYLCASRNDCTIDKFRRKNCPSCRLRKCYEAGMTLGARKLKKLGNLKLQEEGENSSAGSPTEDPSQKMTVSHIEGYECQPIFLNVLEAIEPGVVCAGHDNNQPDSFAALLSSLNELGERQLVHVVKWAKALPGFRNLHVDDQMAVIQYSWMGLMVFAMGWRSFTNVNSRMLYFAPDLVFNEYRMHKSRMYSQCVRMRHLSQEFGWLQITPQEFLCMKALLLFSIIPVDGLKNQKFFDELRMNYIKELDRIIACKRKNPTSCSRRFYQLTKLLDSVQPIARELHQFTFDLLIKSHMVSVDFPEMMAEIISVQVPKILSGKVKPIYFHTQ
Experimental: L929 cells were plated in 96-well plates at 20,000 cells per well, in DMEM/F12 (GIBCO) containing 10% (v/v) charcoal-treated fetal bovine serum (Hyclone) and lacking phenol red. The plates were then incubated overnight at 37° C. in 5% (v/v) humidified CO2.
Test compound dilutions were prepared in 100% (v/v) DMSO, if necessary. Each dilution was made to 1250× the final desired assay concentration.
First, 2 mL of DMEM/F12 lacking phenol red was pipetted into the wells of a 2-mL 96-well assay block. Next, 4 μL of the 1250× test compound dilutions were pipetted into each well of the assay block. The mixtures within the well were then carefully mixed by pipette.
In a 15 mL or 50 mL sterile centrifuge tube, a 2.5 nM (2.5×) dilution of R1881 (methyl-trienolone) in DMEM/F12 lacking phenol red was prepared.
In a second 15 mL or 50 mL centrifuge tube a solution containing an equal volume of DMEM to the first and an equal volume of 100% (v/v) DMSO to the volume of R1881 used in the first tube was prepared.
In a 15 mL or 50 mL sterile centrifuge tube, a dilution in DMEM/F12 of the adenovirus AdEasy+rAR at an moi of 1:500 per well was prepared.
The medium was removed from the 96-well plates by inversion and dried, inverted, very briefly. As soon as possible after medium removal, 40 μL of the diluted unlabeled test compound was added to each well, in duplicate. To each well designated for antagonist testing was added 40 μL of the 2.5 nM R1881 dilution to the wells for antagonist testing. To each well designated for agonist testing was added 40 μL of the DMSO dilution. Then 20 μL of the diluted adenovirus were added to all wells. The plates were incubated for 48 hours at 37° C. in 5% (v/v) humidified CO2.
To each well was added 100 μL of Steady-Glo luciferase assay substrate (Promega) and the plates were placed on a rotary shaker for 1 min. The plates were then incubated at room temperature in the dark for one hour. The contents of each well were then transferred to a white microtiter plate (Packard) and read on a Luminoskan Ascent (Thermo Lab Systems).
L929 AR percent activity was determined by testing dilutions of the test compound using a concentration of 3000 nM unless otherwise noted. L929 percent inhibition was determined by testing dilutions of the test compound using a concentration of 3000 nM. […] Luciferase activity per well were measured and EC50s and IC50s determined by linear regression.

SMILES	% Activity, L929 androgen receptor functional assay [%]
CC(O)(CSCC(F)(F)F)c1cc2cc(C#N)c(C(F)(F)F)cc2[nH]1 (racemic) [Compound 211]	−1
CC(O)(CSc1ccc(N)cc1)c1cc2cc(Cl)c(C(F)(F)F)cc2n1S(C)(=O)=O (racemic) [Compound 125]	−5
